{
  "source": "patent US20060110456A1",
  "about": "“Method for biocidal and/or biostatic treatment and compositions therefor” (NATIONAL UNIVERSITY OF SINGAPORE, priority 2004, published 2006)",
  "key": {"barnacle cyprids": {"test_system": "barnacle cyprids", "assay": "Cyprid settlement on plastic and glass substrata (IMD, ZPX)", "type": "in vivo, Balanus amphitrite", "experimental": "Assays were then carried out on plastic and glass substrata. […] The wells were then rinsed with clean water, and cyprids added in clean seawater.\nA follow up experiment was carried out to examine the effect of ZPX on barnacle settlement when the experiment is carried out on different substrata. ZPX test solutions were prepared as described above from the tablet. The following test conditions were applied: • (1) Assay was carried out with ZPX test solutions in the 24 well tissue culture plates (as before); • (2) ZPX test solution at 25 ug ml^−1 were applied to the 24 well tissue culture plates and left in the well for 10 minutes. The solution is then discarded and the well was rinsed three times, each time with 2 ml of seawater. Clean seawater was added into each well. • (3) The assay with ZPX test solutions was carried out in glass scintillation bottles.\nCyprids were obtained and settlement experiments were carried out as described earlier. After 24 hours, the number of cyprids which had settled/attached was counted."}, "[1]": {"test_system": "marine bacteria (ten strains)", "assay": "Bacteriostatic vs bacteriocidal activity from growth assay: absorbance and CFU counts", "type": "cell-based, marine bacteria isolated from Singapore fouling communities", "details": "50 μg ml^−1", "experimental": "Bacteria strains (1, 4, 9, 14, 18, 20, 27, 28, 29, 30) representing a variety of morphological types were used.\nFor each well, […] of a 100 μg ml^−1 drug solution in sterile distilled water, was added to 45 μl of Marine Broth. Controls for growth consisted of 50 μl of sterile deionized water and 45 μl of marine broth. All wells used for growth studies were prepared in triplicate and inoculated with 5 μl of the bacterial suspension. Blanks consisting of the above volumes of pharmaceutical with Marine Broth and distilled water, were prepared in triplicate and inoculated with 5 μl of sterile seawater. Immediately after adding all the components to the wells for the growth studies, 10 μl was removed and used to inoculate plates of Marine Agar to determine colony-forming units (CFU). The absorbance (A600) of each well was read in the plate reader immediately.\nThe inoculated plates of Marine Agar were incubated overnight on a rotary shaker (150 rpm) at 30° C. inside a moistened airtight container. After incubation, the absorbance was read again and another 10 μl was removed and used to inoculate Marine Agar plates to determine CFU.\nThe difference in absorbance over 24 hours for each bacterial strain versus controls and treatments were plotted in FIGS. 3 to 6 for each of the four drugs. The data was analyzed using 1-tailed t-test."}, "marine bacteria": {"test_system": "marine bacteria", "assay": "Growth assay (absorbance, 96-well plates)", "type": "cell-based, marine bacteria isolated from Singapore fouling communities", "details": "25 μg ml^−1", "experimental": "The dried powder was re-suspended in sterile deionized water and made up to 2 mg ml^−1.\nThe same bacterial strains were used and cultured the same way as in disc inhibition assay. Cells were harvested by centrifugation at 300 rpm for 10 min. The supernatant was discarded and the pellet re-suspended using sterile seawater collected from St. John's island, Singapore. The concentration of bacterial cells was adjusted to an absorbance of approximately 0.6 using a spectrophotometer (Beckman DU530) at wavelength 600 nm.\nThe growth with response to the pharmaceuticals was assumed to be proportional to the absorbance of the bacteria. […] To each well 25 μl of each drug solution (concentration adjusted to 100 μg ml^−1) were pipetted into three wells followed by 10 μl of broth and 65 μl of sterile seawater. For wells that were to contain bacteria, 60 μl of sterile seawater was used instead. All wells used for growth studies were prepared in triplicate and inoculated with 5 μl of the bacterial suspension. Blanks consisting of the respective volumes of pharmaceutical with Marine Broth and distilled water, if needed, were prepared in triplicate and inoculated with 5 μl of sterile seawater.\nThe absorbance (A600) of each well was read in a plate reader (Sunrise Tecan Model F039300) immediately (time=0 hours) and after 1, 2, 3, 4, 20, 23 and 28 hours. Plates were incubated overnight inside a moistened airtight container.\nAny changes in absorbance were plotted and compared with control. The mean absorbance (mean bac) from the bacteria was obtained by deducting the absorbance values of blank wells (containing seawater and broth only) from that for the control wells (containing bacteria in seawater and broth only). The absorbance arising from the drugs was obtained from the 0 hr reading for wells containing drugs and bacteria, minus the wells with drugs alone (mean “drug”). The growth assays were repeated three times."}},
  "note": "“Also recorded” adds a separate entry of the source. Where a name gives a salt, the structure may show the parent alone.",
  "data": [
    {"smiles": "Cc1cc2c(s1)Nc1ccccc1N=C2N1CCN(C)CC1", "note": "[ZPX, olanzapine]", "values": [
      {"measurement": "Effect of ZPX on cyprid settlement on different substrata", "setting": "barnacle cyprids; 24 well tissue culture plates, rinsed ZPX-treated wells (25 ug ml^−1, 10 minutes), glass bottles, 24 hours", "value": "no significant difference in settlement between plastic and glass; also recorded: After rinsing, the effect of ZPX in plastic was removed; also recorded: prevents the settlement of barnacle cyprids"}
    ]},
    {"smiles": "CN(C)C(=O)C(CCN1CCC(O)(c2ccc(Cl)cc2)CC1)(c1ccccc1)c1ccccc1", "note": "[IMD, Loperamide hydrochloride]", "values": [
      {"measurement": "Effect of IMD on settlement of cyprids: drug form, solvent, substratum", "setting": "barnacle cyprids; tablet vs pure compound, DMSO vs DI stock, glass vs plastic, treated and rinsed wells, hydrochloride", "value": "no difference in activity between the solutions prepared from tablet and the pure compound; also recorded: no difference between the DMSO and DI prepared stock solutions; also recorded: no difference between glass and plastic; also recorded: no significant IMD residue present on the surfaces"}
    ]},
    {"smiles": "CNCCC(Oc1ccc(C(F)(F)F)cc1)c1ccccc1", "note": "(centres unmarked) [PZC, fluoxetine hydrochloride]", "values": [
      {"measurement": "Change in CFU count after 24 hours", "setting": "[1]; strain 1 (Rhodovulum)", "value": 0},
      {"measurement": "Inhibition of bacterial growth", "setting": "[1]; strain 1 (Rhodovulum)", "value": 0},
      {"measurement": "Result (bacteriostatic / bacteriocidal / no effect)", "setting": "[1]; strain 1 (Rhodovulum)", "value": "no effect"},
      {"measurement": "Inhibition of bacterial growth", "setting": "[1]; strain 4 (Bacillus)", "value": "+++ (+++ denotes little or no growth, p < 0.001)"},
      {"measurement": "Result (bacteriostatic / bacteriocidal / no effect)", "setting": "[1]; strain 4 (Bacillus)", "value": "bacteriostatic"},
      {"measurement": "Inhibition of bacterial growth", "setting": "[1]; strain 9 (Bacillus)", "value": "+++ (+++ denotes little or no growth, p < 0.001)"},
      {"measurement": "Result (bacteriostatic / bacteriocidal / no effect)", "setting": "[1]; strain 9 (Bacillus)", "value": "bacteriostatic"},
      {"measurement": "Change in CFU count after 24 hours", "setting": "[1]; strain 14 (Vibrio)", "value": 0},
      {"measurement": "Inhibition of bacterial growth", "setting": "[1]; strain 14 (Vibrio)", "value": 0},
      {"measurement": "Result (bacteriostatic / bacteriocidal / no effect)", "setting": "[1]; strain 14 (Vibrio)", "value": "no effect"},
      {"measurement": "Inhibition of bacterial growth", "setting": "[1]; strain 18 (Microbacterium)", "value": "+++ (+++ denotes little or no growth, p < 0.001)"},
      {"measurement": "Result (bacteriostatic / bacteriocidal / no effect)", "setting": "[1]; strain 18 (Microbacterium)", "value": "bacteriostatic"},
      {"measurement": "Inhibition of bacterial growth", "setting": "[1]; strain 20", "value": "+++ (+++ denotes little or no growth, p < 0.001)"},
      {"measurement": "Result (bacteriostatic / bacteriocidal / no effect)", "setting": "[1]; strain 20", "value": "bacteriostatic"},
      {"measurement": "Inhibition of bacterial growth", "setting": "[1]; strain 27", "value": "+++ (+++ denotes little or no growth, p < 0.001)"},
      {"measurement": "Result (bacteriostatic / bacteriocidal / no effect)", "setting": "[1]; strain 27", "value": "bacteriocidal"},
      {"measurement": "Inhibition of bacterial growth", "setting": "[1]; strain 28", "value": "+++ (+++ denotes little or no growth, p < 0.001)"},
      {"measurement": "Result (bacteriostatic / bacteriocidal / no effect)", "setting": "[1]; strain 28", "value": "bacteriostatic"},
      {"measurement": "Inhibition of bacterial growth", "setting": "[1]; strain 29", "value": "+++ (+++ denotes little or no growth, p < 0.001)"},
      {"measurement": "Result (bacteriostatic / bacteriocidal / no effect)", "setting": "[1]; strain 29", "value": "bacteriostatic"},
      {"measurement": "Inhibition of bacterial growth", "setting": "[1]; strain 30", "value": "+++ (+++ denotes little or no growth, p < 0.001)"},
      {"measurement": "Result (bacteriostatic / bacteriocidal / no effect)", "setting": "[1]; strain 30", "value": "bacteriostatic"},
      {"measurement": "Number of strains with strongly inhibited growth", "setting": "marine bacteria; 25 strains of Table 5", "value": 3},
      {"measurement": "Inhibition of bacterial growth", "setting": "marine bacteria; strain 1 (Rhodovulum)", "value": 0},
      {"measurement": "Inhibition of bacterial growth", "setting": "marine bacteria; strain 2 (Erythrobacter)", "value": "+ (+ denotes growth present but inhibited, p < 0.01)"},
      {"measurement": "Inhibition of bacterial growth", "setting": "marine bacteria; strain 3 (Erythrobacter)", "value": "+ (+ denotes growth present but inhibited, p < 0.01)"},
      {"measurement": "Inhibition of bacterial growth", "setting": "marine bacteria; strain 4 (Bacillus)", "value": 0},
      {"measurement": "Inhibition of bacterial growth", "setting": "marine bacteria; strain 6 (Vibrio)", "value": 0},
      {"measurement": "Inhibition of bacterial growth", "setting": "marine bacteria; strain 7 (Vibrio)", "value": "+ (+ denotes growth present but inhibited, p < 0.01)"},
      {"measurement": "Inhibition of bacterial growth", "setting": "marine bacteria; strain 8 (Bacillus)", "value": "+ (+ denotes growth present but inhibited, p < 0.01)"},
      {"measurement": "Inhibition of bacterial growth", "setting": "marine bacteria; strain 9 (Bacillus)", "value": "+ (+ denotes growth present but inhibited, p < 0.01)"},
      {"measurement": "Inhibition of bacterial growth", "setting": "marine bacteria; strain 10 (Halobacillus)", "value": "+++ (+++ denotes little or no growth, p < 0.001)"},
      {"measurement": "Inhibition of bacterial growth", "setting": "marine bacteria; strain 11 (Pseudomonas)", "value": "+ (+ denotes growth present but inhibited, p < 0.01)"},
      {"measurement": "Inhibition of bacterial growth", "setting": "marine bacteria; strain 12 (Gordonia)", "value": "+ (+ denotes growth present but inhibited, p < 0.01)"},
      {"measurement": "Inhibition of bacterial growth", "setting": "marine bacteria; strain 13 (Bacillus)", "value": "+ (+ denotes growth present but inhibited, p < 0.01)"},
      {"measurement": "Inhibition of bacterial growth", "setting": "marine bacteria; strain 14 (Vibrio)", "value": 0},
      {"measurement": "Inhibition of bacterial growth", "setting": "marine bacteria; strain 16 (Pseudoalteromonas)", "value": 0},
      {"measurement": "Inhibition of bacterial growth", "setting": "marine bacteria; strain 17 (Gordonia)", "value": "+++ (+++ denotes little or no growth, p < 0.001)"},
      {"measurement": "Inhibition of bacterial growth", "setting": "marine bacteria; strain 18 (Microbacterium)", "value": "+ (+ denotes growth present but inhibited, p < 0.01)"},
      {"measurement": "Inhibition of bacterial growth", "setting": "marine bacteria; strain 19 (Erythrobacter)", "value": "+ (+ denotes growth present but inhibited, p < 0.01)"},
      {"measurement": "Inhibition of bacterial growth", "setting": "marine bacteria; strain 20", "value": "+ (+ denotes growth present but inhibited, p < 0.01)"},
      {"measurement": "Inhibition of bacterial growth", "setting": "marine bacteria; strain 21", "value": 0},
      {"measurement": "Inhibition of bacterial growth", "setting": "marine bacteria; strain 24", "value": 0},
      {"measurement": "Inhibition of bacterial growth", "setting": "marine bacteria; strain 26", "value": 0},
      {"measurement": "Inhibition of bacterial growth", "setting": "marine bacteria; strain 27", "value": "+ (+ denotes growth present but inhibited, p < 0.01)"},
      {"measurement": "Inhibition of bacterial growth", "setting": "marine bacteria; strain 28", "value": 0},
      {"measurement": "Inhibition of bacterial growth", "setting": "marine bacteria; strain 29", "value": "+ (+ denotes growth present but inhibited, p < 0.01)"},
      {"measurement": "Inhibition of bacterial growth", "setting": "marine bacteria; strain 30", "value": "+++ (+++ denotes little or no growth, p < 0.001)"}
    ]}
  ]
}
